From patent US20160220569A1, “CDK4/6 Inhibitor Dosage Formulations For The Protection Of Hematopoietic Stem And Progenitor Cells During Chemotherapy” (G1 Therapeutics, Inc., priority 2015, published 2016)
Read-outs that look alike come from different tables or passages of the source.

Test: 14-day oral gavage toxicokinetic study in rats
Type: in vivo
Conditions: rat, plasma, po; for concentration at 0.5 h / concentration at 1 h / concentration at 2 h / concentration at 4 h / concentration at 8 h / concentration at 12 h / concentration at 24 h / concentration at […]: rats; for half-life: read-out: t½ (converted)
Procedure: Plasma was obtained from blood samples collected from rats in a composite sampling scheme, with 3 samples collected per sex, per dose, at each target collection time, as illustrated in Table 21 to Table 25. Samples were collected from the vehicle control group on Day 1 and Day 14 at 3 hour after administration. […] Blood samples were collected in tubes containing K3EDTA as an anticoagulant and placed on ice until processed to plasma via centrifugation. Samples were stored frozen at −80° C. until shipment to the bioanalytical laboratory for analysis.
The following parameters were determined:
Cmax: Maximum observed plasma concentration (ng/mL).
A value of 0 ng/mL was assigned to all values below the lower limit of quantitation (BLQ, <10.0 ng/mL).
AUC(0-inf): Area under the plasma concentration vs. time curve extrapolated from 0 to infinity (ng*h/mL), calculated as AUC(0-t)+AUC(t-inf) where AUC(t-inf) is calculated as last measurable concentration (CLast) divided by ke, where ke is the elimination rate constant determined by linear regression of the last three analytically measured points on the log plasma concentration vs. time curve. The selection criteria of the data points for inclusion in the calculation of ke required that at least three data points representing the terminal phase (after Tmax) were regressed and that R2≧0.850 when rounded.
CL: Clearance (L/h/kg), calculated as the dose divided by AUC(0-t).
Vd: Volume of distribution (L/kg), calculated as dose divided by the product of ke and AUC(0-inf).
Vdss: Steady state volume of distribution (L/kg), calculated as clearance […] mean residence time, where mean residence time is calculated as the area under the first moment curve divided by AUC(0-t).
t½: Elimination half-life (h), calculated as ln(2)/ke, where ke is the elimination rate constant determined by linear regression. Half-life was defined as not determined if regression criteria (specified in AUC(0-inf) above) were not met.
Cmax/Dose: Normalized Cmax, calculated as Cmax divided by total dose.
AUC/Dose: Normalized AUC, calculated as AUC(0-t) divided by total dose.
ii. Statistical Analysis Mean and standard deviation (SD) were calculated in Watson. Values of BLQ were assigned a value of 0 ng/mL for mean calculations. Concentration values and derived TK parameters were reported to three significant figures.

[1] = female, 30 mg/kg, oral 30 mg/kg, Study Day 1, Female
[2] = female, 30 mg/kg, oral 30 mg/kg, Study Day 14, Female
[3] = male, 2 mg/kg, oral 2 mg/kg, Study Day 1, Male
[4] = male, 2 mg/kg, oral 2 mg/kg, Study Day 14, Male

CN1CCN(c2ccc(Nc3ncc4cc5n(c4n3)C3(CCCCC3)CNC5=O)nc2)CC1 [Compound 1, 2′-((5-(4-methylpiperazin-1-yl)pyridin-2-yl)amino)-7′,8′-dihydro-6′H-spiro[cyclohexane-1,9′-pyrazino[1′,2′:1,5]pyrrolo[2,3-d]pyrimidin]-6′-one]
concentration at 0.5 h (female, 30 mg/kg, Mean Compound 1 Plasma Concentration, oral 30 mg/kg, Day 1, 0.5 h, Female): 2160 ng/mL | concentration at 1 h (female, 30 mg/kg, Mean Compound 1 Plasma Concentration, oral 30 mg/kg, Day 1, 1 h, Female): 2140 ng/mL | concentration at 2 h (female, 30 mg/kg, Mean Compound 1 Plasma Concentration, oral 30 mg/kg, Day 1, 2 h, Female): 3090 ng/mL | concentration at 4 h (female, 30 mg/kg, Mean Compound 1 Plasma Concentration, oral 30 mg/kg, Day 1, 4 h, Female): 2510 ng/mL | concentration at 8 h (female, 30 mg/kg, Mean Compound 1 Plasma Concentration, oral 30 mg/kg, Day 1, 8 h, Female): 2470 ng/mL | concentration at 12 h (female, 30 mg/kg, Mean Compound 1 Plasma Concentration, oral 30 mg/kg, Day 1, 12 h, Female): 1940 ng/mL | concentration at 24 h (female, 30 mg/kg, Mean Compound 1 Plasma Concentration, oral 30 mg/kg, Day 1, 24 h, Female): 284 ng/mL | concentration at […] (female, 30 mg/kg, Mean Compound 1 Plasma Concentration, oral 30 mg/kg, Day 1, […], Female): 92.9 ng/mL | concentration at 0.5 h (female, 30 mg/kg, Mean Compound 1 Plasma Concentration, oral 30 mg/kg, Day 14, 0.5 h, Female): 1540 ng/mL | concentration at 1 h (female, 30 mg/kg, Mean Compound 1 Plasma Concentration, oral 30 mg/kg, Day 14, 1 h, Female): 2230 ng/mL | concentration at 2 h (female, 30 mg/kg, Mean Compound 1 Plasma Concentration, oral 30 mg/kg, Day 14, 2 h, Female): 2010 ng/mL | concentration at 4 h (female, 30 mg/kg, Mean Compound 1 Plasma Concentration, oral 30 mg/kg, Day 14, 4 h, Female): 2320 ng/mL | concentration at 8 h (female, 30 mg/kg, Mean Compound 1 Plasma Concentration, oral 30 mg/kg, Day 14, 8 h, Female): 1960 ng/mL | concentration at 12 h (female, 30 mg/kg, Mean Compound 1 Plasma Concentration, oral 30 mg/kg, Day 14, 12 h, Female): 2290 ng/mL | concentration at 24 h (female, 30 mg/kg, Mean Compound 1 Plasma Concentration, oral 30 mg/kg, Day 14, 24 h, Female): 322 ng/mL | concentration at […] (female, 30 mg/kg, Mean Compound 1 Plasma Concentration, oral 30 mg/kg, Day 14, […], Female): 537 ng/mL | AUC(0-inf) [1]: 43800 ng·h/mL | AUC(0-t) [1]: 41800 ng·h/mL | Cmax [1]: 3090 ng/mL | Tmax [1]: 2 h | half-life [1]: 4.92 h | AUC(0-inf) [2]: 43200 ng·h/mL | AUC(0-t) [2]: 40600 ng·h/mL | Cmax [2]: 2320 ng/mL | Tmax [2]: 4 h | half-life [2]: 5.56 h | concentration at 1 h (male, 2 mg/kg, Compound 1 Plasma Concentration, Male, Day 1, 1 h, daily oral 2 mg/kg (Group 7), individual animals): 59.1 ng/mL | concentration at 2 h (male, 2 mg/kg, Compound 1 Plasma Concentration, Male, Day 1, 2 h, daily oral 2 mg/kg (Group 7), individual animals): 97.4 ng/mL | concentration at 4 h (male, 2 mg/kg, Compound 1 Plasma Concentration, Male, Day 1, 4 h, daily oral 2 mg/kg (Group 7), individual animals): 122 ng/mL | concentration at 8 h (male, 2 mg/kg, Compound 1 Plasma Concentration, Male, Day 1, 8 h, daily oral 2 mg/kg (Group 7), individual animals): 99 ng/mL | concentration at 12 h (male, 2 mg/kg, Compound 1 Plasma Concentration, Male, Day 1, 12 h, daily oral 2 mg/kg (Group 7), individual animals): 51.9 ng/mL | concentration at 0.5 h (male, 2 mg/kg, Compound 1 Plasma Concentration, Male, Day 14, 0.5 h, daily oral 2 mg/kg (Group 7), individual animals): 36.3 ng/mL | concentration at 2 h (male, 2 mg/kg, Compound 1 Plasma Concentration, Male, Day 14, 2 h, daily oral 2 mg/kg (Group 7), individual animals): 84.3 ng/mL | concentration at 4 h (male, 2 mg/kg, Compound 1 Plasma Concentration, Male, Day 14, 4 h, daily oral 2 mg/kg (Group 7), individual animals): 117 ng/mL | concentration at 8 h (male, 2 mg/kg, Compound 1 Plasma Concentration, Male, Day 14, 8 h, daily oral 2 mg/kg (Group 7), individual animals): 68.7 ng/mL | concentration at 12 h (male, 2 mg/kg, Compound 1 Plasma Concentration, Male, Day 14, 12 h, daily oral 2 mg/kg (Group 7), individual animals): 65.7 ng/mL | concentration at 0.5 h (male, 2 mg/kg, Mean Compound 1 Plasma Concentration, oral 2 mg/kg, Day 1, 0.5 h, Male): 57.7 ng/mL | concentration at 1 h (male, 2 mg/kg, Mean Compound 1 Plasma Concentration, oral 2 mg/kg, Day 1, 1 h, Male): 57.1 ng/mL | concentration at 2 h (male, 2 mg/kg, Mean Compound 1 Plasma Concentration, oral 2 mg/kg, Day 1, 2 h, Male): 102 ng/mL | concentration at 8 h (male, 2 mg/kg, Mean Compound 1 Plasma Concentration, oral 2 mg/kg, Day 1, 8 h, Male): 90.4 ng/mL | concentration at 12 h (male, 2 mg/kg, Mean Compound 1 Plasma Concentration, oral 2 mg/kg, Day 1, 12 h, Male): 53.7 ng/mL | concentration at 0.5 h (male, 2 mg/kg, Mean Compound 1 Plasma Concentration, oral 2 mg/kg, Day 14, 0.5 h, Male): 47 ng/mL | concentration at 1 h (male, 2 mg/kg, Mean Compound 1 Plasma Concentration, oral 2 mg/kg, Day 14, 1 h, Male): 57.1 ng/mL | concentration at 2 h (male, 2 mg/kg, Mean Compound 1 Plasma Concentration, oral 2 mg/kg, Day 14, 2 h, Male): 94.9 ng/mL | concentration at 4 h (male, 2 mg/kg, Mean Compound 1 Plasma Concentration, oral 2 mg/kg, Day 14, 4 h, Male): 116 ng/mL | concentration at 8 h (male, 2 mg/kg, Mean Compound 1 Plasma Concentration, oral 2 mg/kg, Day 14, 8 h, Male): 94.2 ng/mL | concentration at 12 h (male, 2 mg/kg, Mean Compound 1 Plasma Concentration, oral 2 mg/kg, Day 14, 12 h, Male): 54 ng/mL | AUC(0-t) [3]: 1390 ng·h/mL | Cmax [3]: 126 ng/mL | Tmax [3]: 4 h | half-life [3]: 5.32 h | AUC(0-t) [4]: 1360 ng·h/mL | Cmax [4]: 116 ng/mL | Tmax [4]: 4 h | half-life [4]: 4.98 h
